Data from ChEMBL document CHEMBL1151059, “Synthesis and x-ray structure of a potent superpositional analog of the enantiomeric forms of fluoxetine” (Bioorg Med Chem Lett, 1993).

Experiment: Tested in vitro for inhibition of Serotonin uptake
Assay type: functional

SMILES | Activity
FC(F)(F)c1ccc(OC2(c3ccccc3)CCNCC2)cc1 | 580 nM
CNCCC(Oc1ccc(C(F)(F)F)cc1)c1ccccc1 (configuration not stated) | 700 nM
